Reference: patent US12533427B2, “Radioactive antitumor agent” (National Institutes for Quantum Science and Technology, priority 2017, dated 2026)

Key:
[1] = Body weight change of U87MG tumor-bearing mice; format: in vivo, BALB/c nude mouse
Method: (§1) The tumor-bearing mice were randomized into […] (n=7/group), and were intravenously administered with different single doses of ^64Cu-ATSM with 18.5, 37, 74, 111 and 148 MBq, and physiological saline as a control, respectively. To the remaining one group, ^64Cu-ATSM was administered intravenously at a dose of 37 MBq on days 0, 7, 21 and 28 of four times in total (37 MBq×4).
(§2) In each of the following evaluations, data were presented as mean value±standard deviation. Two-way analysis of variance was used in the significant difference test of the data, excluding the survival curve. A Log-rank test was used for the data of the survival curve. Significant levels used were all 5%.
(§3) After the start of the study, mice were weighed twice a week over time, and the size of the tumor was measured with a caliper. The tumor volume was calculated with the formula: tumor volume=length×width^2×π/6, and the tumor volume on each day was expressed as a percentage relative to the initial tumor volume on day 0.

[2] = Measurement of biochemical parameters (liver and renal function) in non-tumor-bearing mice; format: in vivo, mouse; details: any administration group; plasma, day 49
Method: as §2
To evaluate side effects, biochemical parameters were measured using non-tumor-bearing mice (n=5/group) treated in a manner similar to the tumor-bearing mice described above.
The measurements of biochemical parameters were performed by measuring amounts of glutamate pyruvate transaminase and alkaline phosphatase for liver function and amounts of urea nitrogen and creatinine for renal function using mouse plasma prepared from blood collected from heart on day 49 after the first administration of ^64Cu-ATSM, with a blood biochemical analyzer (FUJI DRI-CHEM 7000VZ, manufactured by FUJIFILM Corporation).

[3] = system: U87MG cells from human glioblastoma; experiment: Survival curve for 80 days of U87MG tumor-bearing mice; format: in vivo, BALB/c nude mouse
Method: (§4) U87MG cells from human glioblastoma were purchased from ATCC, and utilized after growing. A U87MG tumor-bearing model was made by implanting 1×10^7 U87MG cells subcutaneously into the flanks of BALB/c nude mouse (male, 6 weeks old, weighing approximately 20 to 25 g, obtained from Japan SLC). The tumor-bearing mice were subjected to tests when the tumor diameter reached around 5 mm after transplantation of U87MG cells.
as §1, §2
After the start of the study, the mice were slaughtered at the time when the tumor volume reached the humanitarian endpoint. Survivability for 80 days was observed, and the survival rate was calculated.

[4] = therapeutic dose calculated from 37 MBq per mouse; cited from earlier work
[5] = Internal exposure dose estimate for human
Method: Meanwhile, the internal exposure dose with ^64Cu-ATSM was maximum in the liver, and was 0.108 mSv/MBq. This means that when 150 MBq/kg of ^64Cu-ATSM is administered to a human weighing 60 kg, the exposure dose is 16.2 mGy/kg for the liver and 972 mSv for the whole body. When this exposure dose is applied to normal radiotherapy, it corresponds to an exposure equal to single irradiation of 1.215 Gy, which is lower than the single irradiation dose (1.8 to 2.0 Gy) of normal split irradiation in radiotherapy. Also, when 450 MBq/kg is administered to a human weighing 60 kg, the exposure dose is 48.6 mGy/kg for the liver and 2,916 mSv for the whole body. Since the tolerance dose of the liver in normal split irradiation is 30 Gy as a dose that causes side effects in 5% in 5 years, the total dose when administered a total of four times during normal radiotherapy of about 3 Gy will be 11.66 Gy, which is lower than the tolerance dose of the liver described above.
The present inventors have also reported estimates of irradiation doses of ^64Cu-ATSM for human based on in vivo distribution in normal mouse tissue (see, Yoshii Y, Furukawa T, Matsumoto H, Yoshimoto M, Kiyono Y, Zhang M R, Fujibayashi Y, and Saga T (2016) Cu-ATSM therapy targets regions with activated DNA repair and enrichment of CD133 cells in an HT-29 tumor model: Sensitization with a nucleic acid antimetabolite. Cancer Lett 376: 74-82 and Yoshii Y, Matsumoto H, Yoshimoto M, Furukawa T, Morokoshi Y, Sogawa C, Zhang M R, Wakizaka H, Yoshii H, Fujibayashi Y, and Saga T (2014) Controlled administration of penicillamine reduces radiation exposure in critical organs during ^64Cu-ATSM internal radiotherapy: a novel strategy for liver protection. PloS one 9: e86996). […] Thus, doses in the multiple administration of ^64Cu-ATSM to human according to the present invention can be determined as appropriate based on data of therapeutic effect and toxicity in mouse in the present invention. PET imaging of ^64Cu-ATSM may also be performed to monitor the irradiation dose of tumors and tissues during ^64Cu-ATSM therapy for human according to the present invention, thereby enabling theranostics of cancer.

[6] = system: U87MG cells from human glioblastoma; experiment: Tumor growth in U87MG tumor-bearing mouse; format: in vivo, BALB/c nude mouse; details: for rate of tumor volume ratio to tumor volume ratio of the control group on day 39: single i.v. administration
Method: as §4, §1, §2, §3

[7] = system: glioblastoma showing high HIF-1α expression; details: clinical PET investigations; cited from earlier work
[8] = Measurement of hematological parameters in non-tumor-bearing mice; format: in vivo, mouse
Method: as §2
To evaluate side effects, hematological parameters were measured using non-tumor-bearing mice (n=5/group) treated in a manner similar to the tumor-bearing mice described above.
The measurement of hematological parameters was performed by measuring concentrations of white blood cells, red blood cells and platelets using blood collected from the vein at the start point (day 0) immediately before administration of ^64Cu-ATSM and on days 2, 7, 14, 21, 28, 35, 42 and 49 after administration of ^64Cu-ATSM, with a blood analyzer (Celltac MEK-6458, manufactured by NIHON KOHDEN CORPORATION).

CD133-positive cells = details: Non-Patent Literature 2; cited from earlier work
[9] = system: CD133-positive cells in tumors; details: Non-Patent Literatures 3 and 4; cited from earlier work
[10] = 37 MBq four-time administration (37 MBq×4)
[11] = 111 and 148 MBq single administration
[12] = 150 MBq/kg to a human weighing 60 kg
[13] = 450 MBq/kg to a human weighing 60 kg

radioactive diacetyl-bis(N4-methylthiosemicarbazone) copper complex [^64Cu-ATSM]
body weight loss [1, 10]: No body weight loss was observed
recovery of body weight [1, 11]: returned to normal body weight by day 14
body weight compared to the control group ([1]; 111 and 148 MBq single administration, day 7): significantly reduced
alkaline phosphatase (ALP) compared to control [2]: no significant differences
blood urea nitrogen (BUN) compared to control [2]: no significant differences
creatinine (CRE) compared to control [2]: no significant differences
glutamate pyruvate transaminase (GPT) compared to control [2]: no significant differences
survival rate compared to the control group ([3]; 37, 74, 111 and 148 MBq single administration groups and 37 MBq×4 group, 80 days): higher than that of the control group
survival time compared to the 111 MBq single administration group [3, 10]: longer survival time than the 111 MBq single administration group, but no significant difference
life-extending effect compared to the control group, single administration groups ([3]; 111 MBq single administration): significant life-extending effect
survival effect among the single administration groups ([3]; 111 MBq single administration): highest survival effect
survival time compared to the 18.5, 37, 74 and 148 MBq single administration groups ([3]; 111 MBq single administration group and 37 MBq×4 group): significantly longer survival time
estimated irradiation doses to liver, red bone marrow and ovary in human [4]: lower than the acceptable dose
exposure dose for the liver [5, 12]: 16.2 mGy/kg
exposure dose for the whole body [5, 12]: 972 mSv
exposure equal to single irradiation of normal radiotherapy [5, 12]: 1.215 Gy
exposure dose for the liver [5, 13]: 48.6 mGy/kg
exposure dose for the whole body [5, 13]: 2,916 mSv
total dose when administered a total of four times ([5]; 450 MBq/kg to a human weighing 60 kg, four times): 11.66 Gy
internal exposure dose, liver (maximum organ) ([5]; liver): 0.108 mSv/MBq
tumor growth compared to the control group ([6]; 37 MBq four times (37 MBq×4)): significantly greater inhibition effect of tumor growth
mice with tumors nearly invisible on day 39 ([6]; 37 MBq four-time administration (37 MBq×4), day 39): 6 cases among 7 mice
rate of tumor volume ratio to that of the control group on day 39 ([6]; 37 MBq four-time administration (37 MBq×4; days 0, 7, 21, 28), i.v., day 39): 0.04
rate of tumor volume ratio to tumor volume ratio of the control group on day 39 ([6]; fifth of five printed values, 148 MBq, day 39): 0.14
rate of tumor volume ratio to tumor volume ratio of the control group on day 39 ([6]; first of five printed values, presumably 18.5 MBq, day 39): 0.82
rate of tumor volume ratio to tumor volume ratio of the control group on day 39 ([6]; fourth of five printed values, presumably 111 MBq, day 39): 0.14
rate of tumor volume ratio to tumor volume ratio of the control group on day 39 ([6]; second of five printed values, presumably 37 MBq, day 39): 0.31
dose dependence of antitumor effect ([6]; single administration 18.5-148 MBq): dose-dependent antitumor effect, showing a plateau at 111 MBq
tumor growth compared to the control group ([6]; single administration at 37, 74, 111 and 148 MBq, 39 days): significantly inhibited tumor growth
tumor growth compared to the control group ([6]; single administration of 18.5 MBq): inhibited tumor growth compared to the control group, but showed no significant difference
rate of tumor volume ratio to tumor volume ratio of the control group on day 39 ([6]; third of five printed values, presumably 74 MBq, day 39): 0.28
accumulation in tumor (PET) [7]: accumulates in highly malignant grade glioblastoma showing high HIF-1α expression
hematological toxicity ([8]; 37 MBq four-time administration (37 MBq×4), throughout the study period): no symptoms of hematological toxicity were observed
recovery of number of white blood cells ([8]; 74, 111 and 148 MBq single administration): recovered to normal on day 21
number of white blood cells (WBC) ([8]; 74 and 111 MBq single administration, day 2): significant reductions
number of platelets (PLT) ([8]; 111 MBq single administration, day 7): significant reduction
recovery of number of platelets [8, 11]: recovered to normal on day 14
number of white blood cells (WBC) ([8]; 111 and 148 MBq single administration, days 7 and 14): significant reductions
recovery of number of red blood cells ([8]; 148 MBq single administration): recovered to normal on day 14
number of red blood cells (RBC) ([8]; 148 MBq single administration, day 7): significant reduction
number of platelets (PLT) ([8]; 148 MBq single administration, days 2 and 7): significant reductions
accumulation in cells (CD133-positive cells): accumulates in CD133-positive cells
effect on CD133-positive cells in tumors [9]: reduce CD133-positive cells in tumors
